# Measurements from paper PMC9851200, “Multiparameter phenotypic screening for endogenous TFEB and TFE3 translocation identifies novel chemical series modulating lysosome function” (Autophagy, 2022).
# Key:
# Format in all cases: binding
# [1] = biological target: T1, kinases (KINOMEscan panel) (Homo sapiens, UniProt O14920)
# T1 sequence (O14920 1-756): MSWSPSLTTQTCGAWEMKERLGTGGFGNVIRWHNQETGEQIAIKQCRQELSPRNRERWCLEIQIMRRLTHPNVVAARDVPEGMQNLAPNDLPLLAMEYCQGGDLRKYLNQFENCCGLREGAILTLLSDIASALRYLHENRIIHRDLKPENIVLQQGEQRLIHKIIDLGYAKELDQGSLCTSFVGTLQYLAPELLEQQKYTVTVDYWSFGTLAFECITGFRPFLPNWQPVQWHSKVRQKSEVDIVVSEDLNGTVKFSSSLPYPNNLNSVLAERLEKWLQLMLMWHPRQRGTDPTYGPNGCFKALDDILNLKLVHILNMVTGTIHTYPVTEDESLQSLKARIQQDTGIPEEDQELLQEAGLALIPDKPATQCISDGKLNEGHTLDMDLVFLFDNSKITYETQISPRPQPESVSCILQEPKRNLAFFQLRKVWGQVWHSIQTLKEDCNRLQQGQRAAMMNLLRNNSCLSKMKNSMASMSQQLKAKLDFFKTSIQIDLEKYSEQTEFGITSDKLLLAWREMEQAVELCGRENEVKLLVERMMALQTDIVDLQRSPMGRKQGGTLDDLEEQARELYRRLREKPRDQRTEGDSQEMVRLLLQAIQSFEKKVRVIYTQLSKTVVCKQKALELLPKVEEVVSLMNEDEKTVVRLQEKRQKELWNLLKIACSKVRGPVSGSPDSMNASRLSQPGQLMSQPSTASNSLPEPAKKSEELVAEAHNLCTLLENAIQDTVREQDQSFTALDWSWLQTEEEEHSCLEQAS
# [2] = biological target: kinases (KINOMEscan panel) (Homo sapiens, UniProt O60674); settings: JAK2(JH1domain-catalytic); NEW KINOMEscan
# [3] = biological target: kinases (KINOMEscan panel) (Homo sapiens, UniProt O96017); settings: kinase CHEK2; NEW KINOMEscan
# [4] = biological target: kinases (KINOMEscan panel) (Homo sapiens, UniProt P10721); settings: NEW KINOMEscan
# [5] = biological target: kinases (KINOMEscan panel) (Homo sapiens, UniProt P10721, V559D/V654A); settings: kinase KIT(V559D,V654A); NEW KINOMEscan
# [6] = biological target: kinases (KINOMEscan panel) (Homo sapiens, UniProt P21127); settings: CDK11B; NEW KINOMEscan
# [7] = biological target: kinases (KINOMEscan panel) (Homo sapiens, UniProt P24941); settings: CDK2; NEW KINOMEscan
# [8] = biological target: kinases (KINOMEscan panel) (Homo sapiens, UniProt P42336, H1047L); settings: NEW KINOMEscan
# [9] = biological target: kinases (KINOMEscan panel) (Homo sapiens, UniProt P50613); settings: kinase CDK7; NEW KINOMEscan
# [10] = biological target: kinases (KINOMEscan panel) (Homo sapiens, UniProt Q00526); settings: CDK3; NEW KINOMEscan
# [11] = biological target: kinases (KINOMEscan panel) (Homo sapiens, UniProt Q13554); settings: kinase CAMK2B; NEW KINOMEscan
# [12] = biological target: kinases (KINOMEscan panel) (Homo sapiens, UniProt Q15759)
# [13] = biological target: kinases (KINOMEscan panel) (Homo sapiens, UniProt Q16512); settings: NEW KINOMEscan
# [14] = biological target: kinases (KINOMEscan panel) (Homo sapiens, UniProt Q16584); settings: kinase MAP3K11; NEW KINOMEscan
# [15] = biological target: T2, kinases (KINOMEscan panel) (Homo sapiens, UniProt Q6PHR2); settings: kinase ULK3; NEW KINOMEscan
# T2 sequence (Q6PHR2 1-472): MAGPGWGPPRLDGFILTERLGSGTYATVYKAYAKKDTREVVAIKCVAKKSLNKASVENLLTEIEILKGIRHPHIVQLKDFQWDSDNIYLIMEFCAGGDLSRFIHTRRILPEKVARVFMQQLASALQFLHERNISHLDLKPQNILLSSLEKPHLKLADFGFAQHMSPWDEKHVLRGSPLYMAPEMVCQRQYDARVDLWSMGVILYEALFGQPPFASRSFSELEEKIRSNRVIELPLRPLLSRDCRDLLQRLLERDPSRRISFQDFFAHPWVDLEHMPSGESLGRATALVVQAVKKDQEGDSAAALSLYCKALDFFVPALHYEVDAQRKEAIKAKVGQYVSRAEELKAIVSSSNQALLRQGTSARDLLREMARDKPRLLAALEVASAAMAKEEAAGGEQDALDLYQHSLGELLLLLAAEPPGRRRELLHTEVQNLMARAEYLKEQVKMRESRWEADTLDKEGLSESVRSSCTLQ
# [16] = biological target: kinases (KINOMEscan panel) (Homo sapiens, UniProt Q86V86); settings: kinase PIM3; NEW KINOMEscan
# [17] = biological target: kinases (KINOMEscan panel) (Homo sapiens, UniProt Q86Y07); settings: NEW KINOMEscan
# [18] = biological target: T3, kinases (KINOMEscan panel) (Homo sapiens, UniProt Q8N752); settings: CSNK1A1L; NEW KINOMEscan
# T3 sequence (Q8N752 1-337): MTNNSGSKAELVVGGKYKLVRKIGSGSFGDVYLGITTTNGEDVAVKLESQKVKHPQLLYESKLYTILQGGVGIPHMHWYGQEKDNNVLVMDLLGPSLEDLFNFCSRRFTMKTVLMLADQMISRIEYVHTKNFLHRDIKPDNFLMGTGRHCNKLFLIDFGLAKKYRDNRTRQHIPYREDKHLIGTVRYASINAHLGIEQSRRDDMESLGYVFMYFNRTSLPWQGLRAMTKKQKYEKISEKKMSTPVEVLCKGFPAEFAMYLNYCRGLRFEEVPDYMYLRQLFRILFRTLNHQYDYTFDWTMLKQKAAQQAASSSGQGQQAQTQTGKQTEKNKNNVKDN
# Chain of kinases (KINOMEscan panel) (Homo sapiens, UniProt P10721) (P10721 26-976): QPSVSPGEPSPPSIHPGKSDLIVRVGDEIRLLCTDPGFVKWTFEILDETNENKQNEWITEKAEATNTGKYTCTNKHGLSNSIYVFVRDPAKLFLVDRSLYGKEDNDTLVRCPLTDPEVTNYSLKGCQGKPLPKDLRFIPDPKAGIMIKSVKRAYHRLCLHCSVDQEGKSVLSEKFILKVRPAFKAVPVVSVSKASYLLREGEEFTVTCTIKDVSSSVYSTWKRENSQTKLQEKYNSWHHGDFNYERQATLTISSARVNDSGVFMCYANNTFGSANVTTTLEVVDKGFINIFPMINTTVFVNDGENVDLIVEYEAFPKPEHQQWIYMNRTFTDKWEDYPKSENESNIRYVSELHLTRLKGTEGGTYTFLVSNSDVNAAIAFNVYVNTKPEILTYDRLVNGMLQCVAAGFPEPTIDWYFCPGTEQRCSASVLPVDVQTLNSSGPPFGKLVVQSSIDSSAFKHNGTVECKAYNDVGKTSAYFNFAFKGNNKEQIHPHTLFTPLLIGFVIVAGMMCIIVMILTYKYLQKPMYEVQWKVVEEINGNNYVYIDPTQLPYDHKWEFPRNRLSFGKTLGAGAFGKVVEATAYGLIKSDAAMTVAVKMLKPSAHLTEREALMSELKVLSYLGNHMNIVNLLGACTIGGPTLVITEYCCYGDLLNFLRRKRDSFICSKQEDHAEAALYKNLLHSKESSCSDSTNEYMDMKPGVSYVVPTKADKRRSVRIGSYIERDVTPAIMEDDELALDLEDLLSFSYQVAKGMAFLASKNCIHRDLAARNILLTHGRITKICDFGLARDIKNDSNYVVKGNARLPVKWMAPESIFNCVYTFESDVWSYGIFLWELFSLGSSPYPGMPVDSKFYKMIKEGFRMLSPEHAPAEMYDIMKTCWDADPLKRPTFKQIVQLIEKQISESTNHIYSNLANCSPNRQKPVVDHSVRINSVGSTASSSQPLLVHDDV
# Chain of kinases (KINOMEscan panel) (Homo sapiens, UniProt Q16584) (Q16584 whole entry): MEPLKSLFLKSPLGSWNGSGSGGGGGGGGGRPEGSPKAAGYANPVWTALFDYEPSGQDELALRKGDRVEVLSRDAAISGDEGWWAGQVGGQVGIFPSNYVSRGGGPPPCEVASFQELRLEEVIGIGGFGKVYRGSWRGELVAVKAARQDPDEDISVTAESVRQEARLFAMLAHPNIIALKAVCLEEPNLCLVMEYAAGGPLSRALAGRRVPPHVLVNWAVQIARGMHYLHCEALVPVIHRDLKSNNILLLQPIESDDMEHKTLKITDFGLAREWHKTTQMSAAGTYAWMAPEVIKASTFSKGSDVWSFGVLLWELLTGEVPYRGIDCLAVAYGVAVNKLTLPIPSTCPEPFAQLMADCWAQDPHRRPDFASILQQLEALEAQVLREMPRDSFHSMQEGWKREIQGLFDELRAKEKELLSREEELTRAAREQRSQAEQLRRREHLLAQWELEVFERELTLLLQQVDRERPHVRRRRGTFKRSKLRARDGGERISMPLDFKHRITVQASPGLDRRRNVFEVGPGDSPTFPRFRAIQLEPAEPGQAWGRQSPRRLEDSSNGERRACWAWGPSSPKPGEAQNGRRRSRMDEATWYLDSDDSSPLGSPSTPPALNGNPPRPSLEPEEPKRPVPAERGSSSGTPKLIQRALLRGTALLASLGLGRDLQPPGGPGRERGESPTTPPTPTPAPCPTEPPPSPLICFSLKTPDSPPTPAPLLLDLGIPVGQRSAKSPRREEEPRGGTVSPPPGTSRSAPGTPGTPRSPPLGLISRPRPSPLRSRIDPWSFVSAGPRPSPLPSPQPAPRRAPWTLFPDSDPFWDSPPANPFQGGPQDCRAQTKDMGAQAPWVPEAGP
# Chain of kinases (KINOMEscan panel) (Homo sapiens, UniProt Q13554) (Q13554 whole entry): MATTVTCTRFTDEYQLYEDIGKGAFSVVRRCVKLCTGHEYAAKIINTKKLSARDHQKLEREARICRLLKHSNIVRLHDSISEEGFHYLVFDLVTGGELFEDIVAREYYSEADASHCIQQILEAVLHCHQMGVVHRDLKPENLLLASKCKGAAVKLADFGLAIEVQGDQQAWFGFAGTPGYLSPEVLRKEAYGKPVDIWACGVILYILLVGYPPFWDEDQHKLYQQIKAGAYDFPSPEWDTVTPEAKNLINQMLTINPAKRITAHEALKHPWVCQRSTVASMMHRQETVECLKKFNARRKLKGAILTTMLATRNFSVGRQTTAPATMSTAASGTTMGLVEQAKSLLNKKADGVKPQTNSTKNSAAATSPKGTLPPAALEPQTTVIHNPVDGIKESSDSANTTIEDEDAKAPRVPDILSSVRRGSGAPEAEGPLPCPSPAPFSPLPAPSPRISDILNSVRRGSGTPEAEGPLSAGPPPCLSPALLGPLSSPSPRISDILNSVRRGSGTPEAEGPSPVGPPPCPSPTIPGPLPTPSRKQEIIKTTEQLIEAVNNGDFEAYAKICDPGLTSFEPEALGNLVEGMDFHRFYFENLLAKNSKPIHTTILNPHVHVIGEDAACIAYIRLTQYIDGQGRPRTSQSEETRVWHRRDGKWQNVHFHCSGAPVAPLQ
# Chain of kinases (KINOMEscan panel) (Homo sapiens, UniProt Q86Y07) (Q86Y07 whole entry): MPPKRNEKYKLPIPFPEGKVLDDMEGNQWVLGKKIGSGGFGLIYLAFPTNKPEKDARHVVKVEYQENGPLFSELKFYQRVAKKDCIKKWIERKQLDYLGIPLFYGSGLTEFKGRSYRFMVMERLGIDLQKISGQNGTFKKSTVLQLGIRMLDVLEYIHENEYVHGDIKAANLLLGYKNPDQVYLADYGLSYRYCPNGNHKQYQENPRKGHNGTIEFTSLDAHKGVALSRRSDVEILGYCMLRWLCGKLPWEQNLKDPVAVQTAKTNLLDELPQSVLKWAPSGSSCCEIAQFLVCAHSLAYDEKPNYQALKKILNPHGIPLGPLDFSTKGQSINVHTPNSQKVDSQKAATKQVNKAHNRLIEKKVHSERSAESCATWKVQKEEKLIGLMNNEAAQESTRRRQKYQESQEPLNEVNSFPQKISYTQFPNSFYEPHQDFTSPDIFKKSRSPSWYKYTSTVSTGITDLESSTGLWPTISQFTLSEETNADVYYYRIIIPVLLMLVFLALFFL
# Chain of kinases (KINOMEscan panel) (Homo sapiens, UniProt Q15759) (Q15759 whole entry): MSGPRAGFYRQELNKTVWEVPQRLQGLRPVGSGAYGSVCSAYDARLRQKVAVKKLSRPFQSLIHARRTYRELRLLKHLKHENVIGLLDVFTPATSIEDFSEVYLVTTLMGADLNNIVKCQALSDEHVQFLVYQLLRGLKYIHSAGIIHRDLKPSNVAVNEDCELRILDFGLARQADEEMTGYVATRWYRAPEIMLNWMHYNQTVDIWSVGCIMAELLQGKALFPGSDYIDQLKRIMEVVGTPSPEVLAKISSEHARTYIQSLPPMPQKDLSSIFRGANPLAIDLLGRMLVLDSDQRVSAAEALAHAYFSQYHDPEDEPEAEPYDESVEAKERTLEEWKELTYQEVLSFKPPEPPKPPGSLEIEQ
# Chain of kinases (KINOMEscan panel) (Homo sapiens, UniProt P21127) (P21127 whole entry): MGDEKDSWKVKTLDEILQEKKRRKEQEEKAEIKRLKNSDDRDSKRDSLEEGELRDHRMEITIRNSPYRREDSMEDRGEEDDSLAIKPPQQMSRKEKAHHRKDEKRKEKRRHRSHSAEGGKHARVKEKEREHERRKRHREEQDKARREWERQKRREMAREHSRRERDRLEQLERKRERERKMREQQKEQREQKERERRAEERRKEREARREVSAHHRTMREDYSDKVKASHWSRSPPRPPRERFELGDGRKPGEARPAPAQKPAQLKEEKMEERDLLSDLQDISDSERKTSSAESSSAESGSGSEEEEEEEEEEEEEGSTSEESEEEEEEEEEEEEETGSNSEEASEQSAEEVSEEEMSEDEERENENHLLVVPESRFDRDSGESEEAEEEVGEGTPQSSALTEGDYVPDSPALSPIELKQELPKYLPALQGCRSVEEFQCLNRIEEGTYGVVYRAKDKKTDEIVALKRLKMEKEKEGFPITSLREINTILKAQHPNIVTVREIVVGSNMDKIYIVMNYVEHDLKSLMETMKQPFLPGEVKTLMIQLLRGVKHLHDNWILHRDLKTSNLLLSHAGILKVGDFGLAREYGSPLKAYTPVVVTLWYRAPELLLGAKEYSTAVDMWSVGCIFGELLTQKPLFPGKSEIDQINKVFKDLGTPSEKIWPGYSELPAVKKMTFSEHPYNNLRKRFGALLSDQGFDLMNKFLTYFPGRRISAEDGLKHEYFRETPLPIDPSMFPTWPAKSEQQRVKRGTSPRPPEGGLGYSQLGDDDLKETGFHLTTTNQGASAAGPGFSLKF
# Chain of kinases (KINOMEscan panel) (Homo sapiens, UniProt O96017) (O96017 whole entry): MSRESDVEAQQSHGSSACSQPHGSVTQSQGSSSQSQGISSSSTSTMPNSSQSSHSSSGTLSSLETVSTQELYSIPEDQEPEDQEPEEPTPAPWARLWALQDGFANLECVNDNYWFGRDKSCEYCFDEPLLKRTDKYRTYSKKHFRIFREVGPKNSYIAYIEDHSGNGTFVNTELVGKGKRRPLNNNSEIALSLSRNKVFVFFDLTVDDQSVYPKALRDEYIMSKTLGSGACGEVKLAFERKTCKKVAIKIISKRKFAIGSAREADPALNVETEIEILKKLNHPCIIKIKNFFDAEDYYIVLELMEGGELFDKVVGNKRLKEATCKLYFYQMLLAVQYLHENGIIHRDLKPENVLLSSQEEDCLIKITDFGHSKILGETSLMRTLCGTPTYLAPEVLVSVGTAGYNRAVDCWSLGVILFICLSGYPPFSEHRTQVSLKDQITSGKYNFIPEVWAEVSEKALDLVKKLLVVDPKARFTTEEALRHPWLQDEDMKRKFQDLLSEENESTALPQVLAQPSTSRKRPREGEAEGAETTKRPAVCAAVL
# Chain of kinases (KINOMEscan panel) (Homo sapiens, UniProt Q00526) (Q00526 whole entry): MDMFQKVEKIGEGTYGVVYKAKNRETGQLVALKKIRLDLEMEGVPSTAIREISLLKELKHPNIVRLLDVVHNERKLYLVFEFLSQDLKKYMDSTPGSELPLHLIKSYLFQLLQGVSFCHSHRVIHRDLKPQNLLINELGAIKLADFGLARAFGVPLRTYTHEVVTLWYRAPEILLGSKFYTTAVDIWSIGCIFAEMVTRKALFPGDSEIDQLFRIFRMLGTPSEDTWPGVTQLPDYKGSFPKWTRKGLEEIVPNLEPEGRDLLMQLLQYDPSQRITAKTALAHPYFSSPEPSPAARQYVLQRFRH
Compound,KINOMEscan IKBKB/IKK-beta [1],KINOMEscan JAK2(JH1domain-catalytic) [2],KINOMEscan CHEK2 [3],KINOMEscan KIT-autoinhibited [4],KINOMEscan KIT [4],"KINOMEscan KIT(V559D,V654A) [5]",KINOMEscan CDK11B [6],KINOMEscan CDK2 [7],KINOMEscan PIK3CA(H1047L) [8],KINOMEscan CDK7 [9],KINOMEscan CDK3 [10],KINOMEscan CAMK2B [11],KINOMEscan MAPK11/p38-beta [12],KINOMEscan PKN1 [13],KINOMEscan MAP3K11 [14],KINOMEscan ULK3 [15],KINOMEscan PIM3 [16],KINOMEscan VRK2 [17],KINOMEscan CSNK1A1L [18]
Cc1cccc(-c2nc(Nc3ccc4nn(C)cc4c3)c3ccccc3n2)n1 [NK167],5,0,0,1,8,15,10,0,4,0,0,0,12,0,0,0,0,11,0
Cc1cccc(-c2nc(N(C)c3ccc4ncsc4c3)c3ccccc3n2)n1 [NK-161],25,0,0,0,5,4,1,0,23,7,0,0,1,0,0,1,0,25,12
